In PubChem BioAssay (NCI):
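In this assay, cells in 96-well plates receive the compound at five concentrations for 48 hours. Endpoints are linearly interpolated between the surrounding concentrations. Here, GI50 denotes the concentration required for 50% inhibition of growth. TGI denotes the concentration required for complete inhibition of growth.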

Assays:
Assay in all cases: inhibition of tumour cell growth, NCI panel, 48 h
OVCAR-8 ovarian = tested on: OVCAR-8 ovarian
SK-MEL-5 melanoma = tested on: SK-MEL-5 melanoma
SF-295 CNS = tested on: SF-295 CNS
RPMI-8226 leukemia = tested on: RPMI-8226 leukemia
UACC-62 melanoma = tested on: UACC-62 melanoma
SN12C renal = tested on: SN12C renal
HCC-2998 colon = tested on: HCC-2998 colon
KM12 colon = tested on: KM12 colon
DU-145 prostate = tested on: DU-145 prostate
MDA-MB-435 = tested on: MDA-MB-435
PC-3 prostate = tested on: PC-3 prostate

| Structure (SMILES) | TGI (OVCAR-8 ovarian) | TGI (SK-MEL-5 melanoma) | TGI (SF-295 CNS) | TGI (RPMI-8226 leukemia) | TGI (UACC-62 melanoma) | TGI (SN12C renal) | TGI (HCC-2998 colon) | TGI (KM12 colon) | TGI (DU-145 prostate) | TGI (MDA-MB-435) | TGI (PC-3 prostate) | GI50 (OVCAR-8 ovarian) | GI50 (SK-MEL-5 melanoma) | GI50 (DU-145 prostate) | GI50 (SF-295 CNS) | GI50 (MDA-MB-435) | GI50 (RPMI-8226 leukemia) | GI50 (SN12C renal) | GI50 (HCC-2998 colon) | GI50 (KM12 colon) |
| --- | --- | --- | --- | --- | --- | --- | --- | --- | --- | --- | --- | --- | --- | --- | --- | --- | --- | --- | --- | --- |
| CSc1cnc2ccccc2c1Sc1c[nH]c2ccccc2c1=O | 34.4 µM | 26.6 µM | > 46.7 µM | 64.4 µM | 25.1 µM | 76.3 µM | 29.5 µM | 22.2 µM |  |  |  |  |  |  |  |  |  |  |  |  |
| Cc1c2ccncc2c(C)c2c1[nH]c1ccc(OCCN(C)C)cc12 | 0.543 µM | 3.4 µM | 0.505 µM | 0.135 µM | 2.35 µM | 1.61 µM | 0.656 µM | 0.499 µM |  |  |  |  |  |  |  |  |  |  |  |  |
| CC(=O)OCC1OC(n2c(C)c(C)c(C)c(C#N)c2=S)C(OC(C)=O)C(OC(C)=O)C1OC(C)=O (stereo not drawn) | > 100 µM | > 100 µM | 61.4 µM |  | > 100 µM | > 100 µM | > 100 µM | > 100 µM | > 100 µM | > 100 µM | > 100 µM |  |  |  |  |  |  |  |  |  |
| COC(=O)Cn1cnc2c(Cl)nc(Nc3ccccc3)nc21 | 66.7 µM | > 100 µM | > 100 µM | > 100 µM | 67.2 µM | > 100 µM | 82.8 µM | > 100 µM |  | 79.8 µM | > 100 µM |  |  |  |  |  |  |  |  |  |
| CC1(C)CC[C@]2(C(=O)O)CC[C@]3(C)[C@H](C(=O)C=C4[C@@]5(C)C=C(C#N)C(=O)C(C)(C)[C@@H]5CC[C@]43C)[C@@H]2C1 | 2.42 µM | 1.69 µM | 1.97 µM | 1.19 µM | 4.43 µM | 2.97 µM |  | 1.61 µM | 2.39 µM | 3 µM | 1.97 µM |  |  |  |  |  |  |  |  |  |
| CCC(=O)OC1CCn2c1nc1c2C(=O)C(C)=C(NC(C)=O)C1=N (stereo not drawn) | 2.89 µM | 2.55 µM | 4.12 µM |  | 2.71 µM | 3.02 µM | 13 µM | 5.37 µM |  |  |  |  |  |  |  |  |  |  |  |  |
| CC(C)Oc1cccc(N2C(Nc3ccccc3)=Nc3ccncc3S2(=O)=O)c1 | 43.4 µM | 26.6 µM | 95.1 µM |  | > 100 µM | > 100 µM | 71.5 µM | 65.8 µM | > 100 µM | 57 µM | 45.6 µM |  |  |  |  |  |  |  |  |  |
| CCN(CC)CC1CCCCN1CC(=O)N1CC(C)C(=O)Nc2ccccc21 (stereo not drawn) |  | > 100 µM | > 100 µM | > 100 µM | > 100 µM | > 100 µM | > 100 µM |  |  |  |  |  |  |  |  |  |  |  |  |  |
| Oc1ccc(Oc2cc3c(cc2Oc2ccc(O)cc2)-c2nc-3nc3[nH]c(nc4nc(nc5[nH]c(n2)c2cc(Oc6ccc(O)cc6)c(Oc6ccc(O)cc6)cc52)-c2cc(Oc5ccc(O)cc5)c(Oc5ccc(O)cc5)cc2-4)c2cc(Oc4ccc(O)cc4)c(Oc4ccc(O)cc4)cc32)cc1 | > 100 µM | > 100 µM | 95.6 µM |  | > 100 µM | > 100 µM | > 100 µM | > 100 µM |  | > 100 µM | > 100 µM |  |  |  |  |  |  |  |  |  |
| Cc1ccc(S(=O)(=O)NC(=O)C2=C3SCCN3C(=O)N(S(=O)(=O)c3ccc(C)cc3)C2c2ccccc2)cc1 (stereo not drawn) | > 100 µM |  | > 100 µM | 92.3 µM | > 100 µM | > 100 µM | 48 µM | 71.6 µM | > 100 µM | 61 µM | > 100 µM |  |  |  |  |  |  |  |  |  |
| CCOc1cc2c(cc1O)C(O)C[C@@H]1[C@@H]2CC[C@]2(C)[C@@H](O)CC[C@@H]12 (stereo partly drawn) | > 50.4 µM |  |  | > 34 µM | > 100 µM | > 100 µM | 30.4 µM | > 100 µM | > 74 µM | > 100 µM | > 100 µM |  |  |  |  |  |  |  |  |  |
| CCOC(=O)CCC(C(=O)OCC)n1nnc2cc(Nc3c(C)[n+]([O-])c4cc(F)c(OCC)cc4[n+]3[O-])ccc21 (stereo not drawn) | > 100 µM | > 100 µM | > 100 µM | > 100 µM | > 100 µM | > 100 µM |  | > 100 µM | > 100 µM | > 100 µM | > 100 µM |  |  |  |  |  |  |  |  |  |
| O=c1[nH]c(=O)n(C2OC(CO)C(O)C2O)cc1OCCCc1ccccc1 (stereo not drawn) | > 100 µM | > 100 µM | > 100 µM |  | > 100 µM | > 100 µM | > 100 µM | > 100 µM | > 100 µM | > 100 µM | > 100 µM |  |  |  |  |  |  |  |  |  |
| Cc1cc(S(=O)(=O)/N=C(/NN)Nc2ccc(Cl)cc2)c(S)cc1Cl | 27.3 µM | 19.2 µM |  | > 100 µM | 27.4 µM | 75.8 µM | 23.8 µM | 19.3 µM | 17.2 µM | 25.6 µM | > 100 µM |  |  |  |  |  |  |  |  |  |
| O=C(O)/C=C\C(=O)Nn1c(Cc2ccc(Cl)cc2)n[nH]c1=O | > 100 µM | > 100 µM | > 100 µM |  | > 100 µM | > 100 µM | > 100 µM |  | > 100 µM | > 100 µM | > 100 µM |  |  |  |  |  |  |  |  |  |
| O=C(O)c1ccccc1C1c2ccccc2Oc2ccccc21 | > 100 µM | > 100 µM | > 100 µM | > 100 µM | > 100 µM | > 100 µM |  | > 100 µM | > 100 µM | > 100 µM | > 100 µM |  |  |  |  |  |  |  |  |  |
| O=C(c1ccc(Cl)cc1)N1CCN=C1c1cc2ccccc2c2ccccc12 | 33.5 µM | 27.9 µM | 30.5 µM | 55.8 µM | 27.7 µM | 30.6 µM |  | 30.6 µM | 38.4 µM | 31.9 µM | 37.2 µM |  |  |  |  |  |  |  |  |  |
| COc1ccc(C)cc(=O)c1O |  | > 100 µM | > 100 µM | > 100 µM | > 100 µM | > 100 µM |  | > 100 µM |  |  |  |  |  |  |  |  |  |  |  |  |
| COc1cc2c(c(OC)c1OC)-c1ccc(SC)c(=O)cc1[C@@H](NCc1ccc([N+](=O)[O-])cc1)CC2 |  | 17.5 µM | > 100 µM | > 100 µM | 51.2 µM | > 100 µM | 0.0105 µM | 0.0341 µM |  |  |  |  |  |  |  |  |  |  |  |  |
| O=C1C2C=CC(n3[nH]c(=O)n(Cc4ccccc4)c3=O)CC2C(=O)N1c1ccc(Br)cc1 (stereo not drawn) | > 100 µM | > 100 µM | > 100 µM | > 100 µM | > 100 µM | > 100 µM | > 100 µM | > 100 µM |  |  |  |  |  |  |  |  |  |  |  |  |
| N/C(=N\N=C\c1ncccc1O)NO | > 100 µM | > 31.6 µM | > 77.8 µM | > 100 µM | 43 µM | > 100 µM | > 100 µM | > 100 µM |  |  |  |  |  |  |  |  |  |  |  |  |
| COc1ccccc1C1C(C#N)=C(N)Oc2n[nH]c(C)c21 (stereo not drawn) | > 100 µM | > 100 µM | > 100 µM | 29.6 µM |  | > 100 µM | > 100 µM | > 100 µM | > 100 µM | > 100 µM |  | > 100 µM | 59 µM | > 100 µM | > 100 µM | 75.1 µM | 10.5 µM | 14.8 µM | > 100 µM | > 100 µM |
